# Test system: SEM cells
# Test: cell viability relative to DMSO control; higher = less cytotoxic
# Conditions: 48 h
# Method in brief: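 Viability was expressed as a per-plate percentage of DMSO wells, with cell-free wells as background. Leukemia cells (NOMO1 or SEM at 500 cells/well, P12-Ichikawa at 1000 cells/well) were adapted for at least four passages in each medium and seeded in 1536-well plates (5 μl). Library compounds in DMSO were pin-dosed over an 11-point threefold series from 47 μM to 0.79 nM, and CellTiter-Glo One luminescence was read after 48 h at 37°C.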
# [1] = HPLM + 10% dialyzed FBS, 0.000781 µM
# [2] = HPLM + 10% dialyzed FBS, 0.00234 µM
# [3] = HPLM + 10% dialyzed FBS, 0.00702 µM
# [4] = HPLM + 10% dialyzed FBS, 0.0211 µM
# [5] = HPLM + 10% dialyzed FBS, 0.0632 µM
# [6] = HPLM + 10% dialyzed FBS, 0.19 µM
# [7] = HPLM + 10% dialyzed FBS, 0.569 µM
# [8] = HPLM + 10% dialyzed FBS, 1.71 µM
# [9] = HPLM + 10% dialyzed FBS, 5.12 µM
# [10] = HPLM + 10% dialyzed FBS, 15.4 µM
# [11] = HPLM + 10% dialyzed FBS, 46.1 µM
# [12] = RPMI 5 mM glucose + 10% FBS, 0.000781 µM
# [13] = RPMI 5 mM glucose + 10% FBS, 0.00234 µM
# [14] = RPMI 5 mM glucose + 10% FBS, 0.00702 µM
# [15] = RPMI 5 mM glucose + 10% FBS, 0.0211 µM
# [16] = RPMI 5 mM glucose + 10% FBS, 0.0632 µM
# [17] = RPMI 5 mM glucose + 10% FBS, 0.19 µM
# [18] = RPMI 5 mM glucose + 10% FBS, 0.569 µM
# [19] = RPMI 5 mM glucose + 10% FBS, 1.71 µM
# [20] = RPMI 5 mM glucose + 10% FBS, 5.12 µM
# [21] = RPMI 5 mM glucose + 10% FBS, 15.4 µM
# [22] = RPMI 5 mM glucose + 10% FBS, 46.1 µM
# [23] = RPMI 5 mM glucose + 10% dialyzed FBS, 0.000781 µM
# [24] = RPMI 5 mM glucose + 10% dialyzed FBS, 0.00234 µM
# [25] = RPMI 5 mM glucose + 10% dialyzed FBS, 0.00702 µM
# [26] = RPMI 5 mM glucose + 10% dialyzed FBS, 0.0211 µM
# [27] = RPMI 5 mM glucose + 10% dialyzed FBS, 0.0632 µM
# [28] = RPMI 5 mM glucose + 10% dialyzed FBS, 0.19 µM
# [29] = RPMI 5 mM glucose + 10% dialyzed FBS, 0.569 µM
# [30] = RPMI 5 mM glucose + 10% dialyzed FBS, 1.71 µM
# [31] = RPMI 5 mM glucose + 10% dialyzed FBS, 5.12 µM
# [32] = RPMI 5 mM glucose + 10% dialyzed FBS, 15.4 µM
# [33] = RPMI 5 mM glucose + 10% dialyzed FBS, 46.1 µM
Structure (SMILES),cell viability [1],cell viability [2],cell viability [3],cell viability [4],cell viability [5],cell viability [6],cell viability [7],cell viability [8],cell viability [9],cell viability [10],cell viability [11],cell viability [12],cell viability [13],cell viability [14],cell viability [15],cell viability [16],cell viability [17],cell viability [18],cell viability [19],cell viability [20],cell viability [21],cell viability [22],cell viability [23],cell viability [24],cell viability [25],cell viability [26],cell viability [27],cell viability [28],cell viability [29],cell viability [30],cell viability [31],cell viability [32],cell viability [33]
N[C@@H](Cc1ccc(O)c(O)c1)C(=O)O,86.4%,101%,102%,100%,107%,108%,108%,111%,122%,107%,109%,108%,100%,107%,108%,116%,115%,106%,116%,126%,121%,127%,92.1%,97.6%,108%,116%,117%,116%,117%,123%,122%,128%,105%
CCCCc1nc2cc(/C=C/C(=O)NO)ccc2n1CCN(CC)CC,91.9%,91.8%,105%,98.1%,108%,108%,92.6%,61.1%,6.03%,4.68%,5.88%,85.4%,99.1%,94.8%,97.8%,109%,107%,94%,73%,5.16%,4.06%,5.64%,82.9%,79.1%,95.6%,94%,77.5%,99.6%,76.6%,57.7%,6.04%,4.68%,6.77%
COc1cc(Cl)cn2c(-c3cccc(NC4CNC4)n3)cnc12,114%,117%,131%,121%,133%,116%,125%,90.8%,128%,105%,96.8%,–,–,–,–,–,–,–,–,–,–,–,–,–,–,–,–,–,–,–,–,–,–
C=CC(=O)Nc1ccc2ncnc(Nc3ccc(OCc4cccc(F)c4)c(Cl)c3)c2c1,75.8%,82.7%,83.9%,84.4%,103%,91.2%,89.7%,101%,77.5%,21.2%,18.1%,102%,105%,115%,117%,95.3%,110%,118%,116%,76.1%,14.6%,12.5%,85.5%,87.5%,88.4%,92.4%,102%,92.4%,93%,107%,77%,19.9%,11.1%
CCc1cc(-c2n[nH]c(C)c2-c2ccc3c(c2)OCCO3)c(O)cc1O,98%,123%,137%,117%,128%,124%,126%,111%,111%,32.9%,36.2%,106%,123%,115%,127%,134%,140%,120%,115%,102%,31.4%,25.2%,–,–,–,–,–,–,–,–,–,–,–
NC\1=N\C(=O)N(\C=C1F)[C@H]2C[C@H](O)[C@@H](CO)O2,110%,123%,116%,89.9%,63.4%,30.8%,47.2%,43.6%,45.5%,34.7%,39.7%,–,–,–,–,–,–,–,–,–,–,–,125%,128%,93%,53.8%,38.7%,21.8%,35.4%,40.1%,28%,30.1%,28.5%
CO[C@@H]1[C@@H](O)[C@H](O)[C@@H](n2c3c(Cl)cccc3c3c4c(c5c6cccc(Cl)c6[nH]c5c32)C(=O)NC4=O)O[C@H]1CO,99.7%,90.8%,105%,112%,96.9%,81.2%,54.5%,13.8%,9.51%,5.16%,5.04%,137%,118%,113%,112%,108%,70.1%,28.1%,11.5%,6.56%,4.38%,4.8%,99.2%,113%,95.1%,100%,92.4%,82.9%,43.1%,11%,7.94%,4.29%,3.62%
Cc1ccc([S+](=O)([O-])Nc2cc(Cl)ccc2C(=O)Nc2nc(-c3ccccc3)cs2)cc1,116%,111%,110%,117%,121%,115%,24.8%,133%,119%,120%,55.3%,127%,123%,109%,126%,124%,119%,32.1%,124%,121%,120%,58.5%,121%,110%,99.1%,108%,110%,120%,31.8%,119%,126%,118%,32.3%
NNc1nncc2ccccc12,76.2%,105%,109%,103%,117%,122%,112%,136%,126%,117%,132%,87.8%,114%,128%,128%,152%,125%,156%,162%,131%,134%,115%,89.6%,124%,125%,143%,152%,135%,147%,163%,153%,156%,158%
